Experimental data as given in PMC4417173 (2015).

Experiments:
[1] = system: 5'-T8iG4T isoguanine quadruplex, (T8iG4T)4 (DNA, other, 2'-deoxyisoguanine at 9, 10, 11, 12 (written as G)) TTTTTTTTGGGGT; assay: UV-vis titration, Soret band; details: 20 mM KCl; 40 mM Tris-HCl pH 8.0, 1% DMF, 0.05% Triton X-100, 25 °C; highest DNA tested 70 μM
[2] = system: 5'-T8G4T G-quadruplex, (T8G4T)4 (DNA, G4) TTTTTTTTGGGGT; assay: UV-vis titration, Soret band 404 nm; details: 40 mM Tris-HCl pH 8.0, 1% DMF, 0.05% Triton X-100, 25 °C, 0.5 μM heme
[3] = system: 5'-T8iG4T isoguanine pentaplex, (T8iG4T)5 (DNA, other, 2'-deoxyisoguanine at 9, 10, 11, 12 (written as G)) TTTTTTTTGGGGT; assay: UV-vis titration, Soret band 404 nm; details: 20 mM NaCl; 40 mM Tris-HCl pH 8.0, 1% DMF, 0.05% Triton X-100, 25 °C; 0.5 μM heme

Compound: C=CC1=C(C)C2=Cc3c(C=C)c(C)c4[n]3[Fe]([Cl])[n]3c(c(C)c(CCC(=O)O)c3=CC3=NC(=C4)C(C)=C3CCC(=O)O)=CC1=N2
- binding [1]: no
- Kd ([2]; 20 mM KCl): 7.89 ± 0.96 µM
- Kd ([2]; 20 mM NaCl): 3.22 ± 0.43 µM
- Kd [3]: 1.28 ± 0.05 µM
